# According to the NIST ThermoML archive (doi:10.1021/acs.jced.8b01039):
# Numbers after ± are expanded uncertainties.
# Experiment: xn = mol fraction of the nth substance listed
# Details: Vibrating wire viscometry, x1 = 0.5
smiles,measurement,setting,value
"F/C=C/C(F)(F)F [trans-1,3,3,3-tetrafluoropropene] + C=C(F)C(F)(F)F",viscosity,"252.3 K, 1000 kPa, Liquid",0.2935 ± 0.03 mPa·s
same,viscosity,"252.3 K, 2010 kPa, Liquid",0.2969 ± 0.03 mPa·s
same,viscosity,"252.3 K, 3020 kPa, Liquid",0.3004 ± 0.03 mPa·s
same,viscosity,"273.2 K, 1000 kPa, Liquid",0.2271 ± 0.023 mPa·s
same,viscosity,"273.2 K, 1960 kPa, Liquid",0.2316 ± 0.024 mPa·s
same,viscosity,"273.2 K, 2980 kPa, Liquid",0.2352 ± 0.024 mPa·s
same,viscosity,"294.2 K, 1010 kPa, Liquid",0.179 ± 0.018 mPa·s
same,viscosity,"294.2 K, 1980 kPa, Liquid",0.1824 ± 0.019 mPa·s
same,viscosity,"294.2 K, 3000 kPa, Liquid",0.1858 ± 0.019 mPa·s
same,viscosity,"348.2 K, 950 kPa, Gas",0.0132 ± 0.0015 mPa·s
same,viscosity,"368.2 K, 1050 kPa, Gas",0.0139 ± 0.0016 mPa·s
same,viscosity,"368.2 K, 1710 kPa, Gas",0.0148 ± 0.0017 mPa·s
same,viscosity,"388.2 K, 1910 kPa, Gas",0.0156 ± 0.0018 mPa·s
same,viscosity,"388.2 K, 2700 kPa, Gas",0.0168 ± 0.0019 mPa·s
same,viscosity,"403.2 K, 3020 kPa, Gas",0.0175 ± 0.0019 mPa·s
FC(F)C(F)(F)F [pentafluoroethane] + CC(F)F,viscosity,"252.1 K, 1020 kPa, Liquid",0.2923 ± 0.03 mPa·s
same,viscosity,"252.1 K, 2000 kPa, Liquid",0.2944 ± 0.03 mPa·s
same,viscosity,"252.1 K, 2500 kPa, Liquid",0.2966 ± 0.03 mPa·s
same,viscosity,"252.1 K, 3000 kPa, Liquid",0.299 ± 0.03 mPa·s
same,viscosity,"252.1 K, 4000 kPa, Liquid",0.3024 ± 0.031 mPa·s
same,viscosity,"263.1 K, 1510 kPa, Liquid",0.2558 ± 0.026 mPa·s
same,viscosity,"263.1 K, 2010 kPa, Liquid",0.2574 ± 0.026 mPa·s
same,viscosity,"263.1 K, 2510 kPa, Liquid",0.2593 ± 0.026 mPa·s
same,viscosity,"263.1 K, 3020 kPa, Liquid",0.2612 ± 0.026 mPa·s
same,viscosity,"263.1 K, 4010 kPa, Liquid",0.2643 ± 0.027 mPa·s
same,viscosity,"274.5 K, 1510 kPa, Liquid",0.2181 ± 0.022 mPa·s
same,viscosity,"274.5 K, 2000 kPa, Liquid",0.2198 ± 0.022 mPa·s
same,viscosity,"274.5 K, 2510 kPa, Liquid",0.222 ± 0.023 mPa·s
same,viscosity,"274.5 K, 3020 kPa, Liquid",0.2233 ± 0.023 mPa·s
same,viscosity,"274.5 K, 4010 kPa, Liquid",0.2261 ± 0.023 mPa·s
same,viscosity,"294.3 K, 1200 kPa, Liquid",0.1676 ± 0.017 mPa·s
same,viscosity,"294.3 K, 1500 kPa, Liquid",0.1688 ± 0.017 mPa·s
same,viscosity,"294.3 K, 2000 kPa, Liquid",0.1704 ± 0.017 mPa·s
same,viscosity,"294.3 K, 3000 kPa, Liquid",0.1737 ± 0.018 mPa·s
same,viscosity,"294.3 K, 4000 kPa, Liquid",0.1777 ± 0.018 mPa·s
same,viscosity,"323.2 K, 990 kPa, Gas",0.0124 ± 0.0015 mPa·s
same,viscosity,"343.2 K, 1090 kPa, Gas",0.0132 ± 0.0015 mPa·s
same,viscosity,"343.2 K, 1800 kPa, Gas",0.014 ± 0.0016 mPa·s
same,viscosity,"363.2 K, 2010 kPa, Gas",0.0147 ± 0.0017 mPa·s
same,viscosity,"363.2 K, 2780 kPa, Gas",0.0157 ± 0.0018 mPa·s
same,viscosity,"383.2 K, 3130 kPa, Gas",0.0165 ± 0.0018 mPa·s
"CC(F)(F)F [1,1,1-trifluoroethane] + C=C(F)C(F)(F)F",viscosity,"252.1 K, 2010 kPa, Liquid",0.2421 ± 0.025 mPa·s
same,viscosity,"252.1 K, 2520 kPa, Liquid",0.2439 ± 0.025 mPa·s
same,viscosity,"252.1 K, 3030 kPa, Liquid",0.2451 ± 0.025 mPa·s
same,viscosity,"273.2 K, 910 kPa, Liquid",0.1824 ± 0.019 mPa·s
same,viscosity,"273.2 K, 2010 kPa, Liquid",0.1859 ± 0.019 mPa·s
same,viscosity,"273.2 K, 2500 kPa, Liquid",0.187 ± 0.019 mPa·s
same,viscosity,"273.2 K, 3000 kPa, Liquid",0.1888 ± 0.019 mPa·s
same,viscosity,"294.4 K, 1250 kPa, Liquid",0.1424 ± 0.015 mPa·s
same,viscosity,"294.4 K, 2010 kPa, Liquid",0.1453 ± 0.015 mPa·s
same,viscosity,"294.4 K, 2510 kPa, Liquid",0.1469 ± 0.015 mPa·s
same,viscosity,"294.4 K, 3020 kPa, Liquid",0.1482 ± 0.015 mPa·s
same,viscosity,"323.2 K, 970 kPa, Gas",0.0124 ± 0.0015 mPa·s
same,viscosity,"343.2 K, 1060 kPa, Gas",0.0133 ± 0.0016 mPa·s
same,viscosity,"343.2 K, 1840 kPa, Gas",0.014 ± 0.0016 mPa·s
same,viscosity,"363.2 K, 2040 kPa, Gas",0.0149 ± 0.0017 mPa·s
same,viscosity,"363.2 K, 2750 kPa, Gas",0.016 ± 0.0018 mPa·s
same,viscosity,"383.2 K, 3070 kPa, Gas",0.0168 ± 0.0019 mPa·s
